From ChEMBL document CHEMBL5512666, “Selenization of Small Molecule Drugs: A New Player on the Board” (J Med Chem, 2024)
Values after ≈ are worked out from the molar mass of the structure shown.

Tests used:
MHCC97H = assay: Antiproliferative activity against human MHCC97H cells assessed as reduction in cell viability incubated for 48 hrs by MTT assay; type: functional, cell-based
[1] = Inhibition of TrxR (unknown origin) expressed in MHCC97H cells incubated for 24 hrs by colorimetric assay; type: cell-based, Homo sapiens
Human alphaherpesvirus 1 = assay: Antiviral activity against HSV-1 infected in African green monkey Vero cells assessed as reduction in virus-induced cytopathic effect incubated for 3 days by MTT assay; type: functional, organism-based; conditions: Human alphaherpesvirus 1, Vero, 72 h
Human alphaherpesvirus 2 = assay: Antiviral activity against HSV-2 infected in African green monkey Vero cells assessed as reduction in virus-induced cytopathic effect incubated for 3 days by MTT assay; type: functional, organism-based; conditions: Human alphaherpesvirus 2, Vero, 72 h
Human alphaherpesvirus 3 = assay: Antiviral activity against VZV infected in African green monkey Vero cells assessed as reduction in virus-induced cytopathic effect incubated for 3 days by MTT assay; type: functional, organism-based; conditions: Human alphaherpesvirus 3, Vero, 72 h
Human betaherpesvirus 5 = assay: Antiviral activity against […] infected in African green monkey Vero cells assessed as reduction in virus-induced cytopathic effect incubated for 3 days by MTT assay; type: functional, organism-based; conditions: Human betaherpesvirus 5, Vero, 72 h
OVCAR-3 = assay: Antiproliferative activity against human OVCAR-3 cells; type: functional, cell-based
[2] = Antiproliferative activity against human OVCAR-10 cells; type: functional, cell-based
ES-2 = assay: Antiproliferative activity against human ES2 cells; type: functional, cell-based
[3] = Antiproliferative activity against human HEY A8 cells; type: functional, cell-based
HEK-293T = assay: Antiproliferative activity against HEK293T; type: functional, cell-based; conditions: Homo sapiens
Candida albicans [4] = assay: Antifungal activity against azole-resistant Candida albicans clinical isolate CaR assessed as fungal growth inhibition incubated for 24 hrs by CLSI protocol based broth microdilution method; type: functional
Candida albicans [5] = assay: Antifungal activity against azole-resistant Candida albicans clinical isolate 17 assessed as fungal growth inhibition incubated for 24 hrs by CLSI protocol based broth microdilution method; type: functional
Candida albicans [6] = assay: Antifungal activity against azole-resistant Candida albicans clinical isolate 632 assessed as fungal growth inhibition incubated for 24 hrs by CLSI protocol based broth microdilution method; type: functional
Candida albicans [7] = assay: Antifungal activity against azole-resistant Candida albicans clinical isolate 901 assessed as fungal growth inhibition incubated for 24 hrs by CLSI protocol based broth microdilution method; type: functional
Candida albicans [8] = assay: Antifungal activity against azole-resistant Candida albicans clinical isolate 904 assessed as fungal growth inhibition incubated for 24 hrs by CLSI protocol based broth microdilution method; type: functional
Candida tropicalis = assay: Antifungal activity against Candida tropicalis CGMCC 2.3739; type: functional
[9] = Antioxidant activity assessed as reduction in peroxynitrite mediated L-tyrosine nitration by measuring remaining activity relative to control; type: functional; design: concentration or dose not given beside the values
[10] = Cytotoxicity against human A549 cells assessed as reduction in cell viability incubated for 96 hrs by MTT assay; type: toxicity, cell-based
[11] = Cytotoxicity against human MDA-MB-231 cells assessed as reduction in cell viability incubated for 96 hrs by MTT assay; type: toxicity, cell-based
[12] = Cytotoxicity against human SGC cells assessed as reduction in cell viability incubated for 96 hrs by MTT assay; type: toxicity, cell-based
Candida albicans [13] = assay: Antifungal activity against Candida albicans CPCC 400616; type: functional
Candida albicans [14] = assay: Antifungal activity against Candida albicans SC5314; type: functional
Cryptococcus neoformans = assay: Antifungal activity against Cryptococcus neoformans CGMCC 2.3161; type: functional
Pichia kudriavzevii = assay: Antifungal activity against Candida krusei AS 2.1045; type: functional
Nakaseomyces glabratus = assay: Antifungal activity against Candida glabrata; type: functional
Candida parapsilosis = assay: Antifungal activity against Candida parapsilosis 22019; type: functional; conditions: Lodderomyces parapsilosis
Aspergillus fumigatus = assay: Antifungal activity against Aspergillus fumigatus CGMCC 3.7795; type: functional
[15] = Antioxidant activity assessed as inhibition of peroxynitrite mediated L-tyrosine nitration in sodium phosphate buffer at pH 7.5 incubated for 7 mins by RP-HPLC analysis; type: functional
HeLa [16] = assay: Cytotoxicity against human HeLa cells measured after 72 hrs; type: functional, cell-based
A549 [17] = assay: Cytotoxicity against human A549 cells measured after 72 hrs; type: functional, cell-based; conditions: A549, 72 h
HCT-116 = assay: Cytotoxicity against human HCT-116 cells measured after 72 hrs; type: functional, cell-based; conditions: HCT-116, 72 h
[18] = Cytotoxicity against mouse NIH3T3 cells measured after 72 hrs; type: toxicity, cell-based
[19] = Cytotoxicity against mouse L929 cells measured after 72 hrs; type: toxicity, cell-based
HeLa [20] = assay: Cytotoxicity against human HeLa cells assessed as inhibition of cell growth incubated for 96 hrs by MTT assay; type: functional, cell-based
HepG2 = assay: Cytotoxicity against human HepG2 cells assessed as inhibition of cell growth incubated for 96 hrs by MTT assay; type: functional, cell-based; conditions: HepG2, 96 h
A549 [21] = assay: Cytotoxicity against human A549 cells assessed as inhibition of cell growth incubated for 96 hrs by MTT assay; type: functional, cell-based; conditions: A549, 96 h
SMMC-7721 = assay: Cytotoxicity against human SMMC-7721 cells assessed as inhibition of cell growth incubated for 96 hrs by MTT assay; type: functional, cell-based; conditions: SMMC-7721, 96 h
Lactoperoxidase = Lactoperoxidase (Homo sapiens, UniProt P22079); assay: Inhibition of LPO (unknown origin)-mediated L-tyrosine nitration incubated for 20 mins in presence of H2O2 and sodium nitrite by RP-HPLC analysis
Lactoperoxidase, sequence (P22079 whole entry): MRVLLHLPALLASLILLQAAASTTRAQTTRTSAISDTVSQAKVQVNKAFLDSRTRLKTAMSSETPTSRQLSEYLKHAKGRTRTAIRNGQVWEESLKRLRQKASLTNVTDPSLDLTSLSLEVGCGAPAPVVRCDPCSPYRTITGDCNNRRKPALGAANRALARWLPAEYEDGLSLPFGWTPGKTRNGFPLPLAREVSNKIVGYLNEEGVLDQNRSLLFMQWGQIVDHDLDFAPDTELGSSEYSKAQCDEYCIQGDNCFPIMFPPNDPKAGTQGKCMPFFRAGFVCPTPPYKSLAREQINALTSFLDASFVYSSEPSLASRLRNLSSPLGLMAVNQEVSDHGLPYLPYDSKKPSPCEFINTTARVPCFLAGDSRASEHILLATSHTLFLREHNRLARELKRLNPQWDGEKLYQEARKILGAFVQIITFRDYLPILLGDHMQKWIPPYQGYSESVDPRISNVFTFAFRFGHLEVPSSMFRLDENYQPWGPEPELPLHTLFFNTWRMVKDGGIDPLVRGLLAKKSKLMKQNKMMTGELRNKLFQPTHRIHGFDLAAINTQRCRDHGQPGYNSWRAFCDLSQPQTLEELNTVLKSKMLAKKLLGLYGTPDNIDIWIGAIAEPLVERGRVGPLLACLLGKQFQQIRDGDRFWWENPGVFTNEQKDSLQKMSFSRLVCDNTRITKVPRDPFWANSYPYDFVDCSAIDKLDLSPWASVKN

Work on CN1CCC(COc2cnc(-c3cccc(Cn4nc(-c5cccc(C#N)c5)ccc4=O)c3)nc2)CC1 [TEPOTINIB] yielded an IC50 (MHCC97H) of 16 nM and an IC50 [1] greater than 10000 nM.

In the case of CN(C)CC[Se]c1cnc(-c2cccc(Cn3nc(-c4cccc(C#N)c4)ccc3=O)c2)nc1, the IC50 (MHCC97H) is reported as 27 nM and the IC50 [1] is reported as 421 nM.

Work on NC1=Nc2c(ncn2C[Se]C(CO)CO)C(N)N1 (stereo unspecified) yielded an EC50 (Human alphaherpesvirus 1) greater than 100 µM, an EC50 (Human alphaherpesvirus 2) greater than 100 µM and an EC50 (Human alphaherpesvirus 3) greater than 100 µM. It also gave an EC50 (Human betaherpesvirus 5) of 34.3 µM.

O=C1N[C@H]2[C@H](CS[C@H]2CCCCC(=O)[Se]Cc2ccccc2)N1 gave an IC50 (OVCAR-3) of 36.9 µM, an IC50 [2] of 47.2 µM and an IC50 (ES-2) of 16.2 µM. It also gave an IC50 [3] of 17.3 µM and an IC50 (HEK-293T) of 6.57 µM.

OC(Cn1cncn1)(Cn1cncn1)c1ccc(F)cc1F [FLUCONAZOLE] gave an MIC (Candida albicans [4]) greater than 128 µg/mL, an MIC (Candida albicans [5]) greater than 128 µg/mL and an MIC (Candida albicans [6]) greater than 128 µg/mL. It also gave an MIC (Candida albicans [7]) greater than 128 µg/mL, an MIC (Candida albicans [8]) greater than 128 µg/mL and an MIC (Candida tropicalis) of 2 µg/mL (≈ 6.53 µM).

C=C1N(C)C=CN1CCCn1ccn(C)c1=[Se] showed an Activity [9] of 29%.

c1ccc(-c2nn[se]c2-n2cncn2)cc1 showed an MIC (Candida albicans [4]) of 2 µg/mL (≈ 7.24 µM), an MIC (Candida albicans [5]) of 16 µg/mL (≈ 57.9 µM) and an MIC (Candida albicans [6]) of 32 µg/mL (≈ 116 µM). It also gave an MIC (Candida albicans [7]) of 32 µg/mL (≈ 116 µM), an MIC (Candida albicans [8]) of 32 µg/mL (≈ 116 µM) and an IC50 at 96 h [10] of 20.5 µg/mL (≈ 74.3 µM). It also gave an IC50 at 96 h [11] of 80.7 µg/mL (≈ 292 µM) and an IC50 at 96 h [12] of 30.8 µg/mL (≈ 111 µM).

For Cc1cccc(C)c1[Se]C(Cn1ccnc1)c1ccc(Cl)cc1 (stereo unspecified), the MIC (Candida albicans [13]) was 0.03 µg/mL (≈ 0.077 µM), the MIC (Candida albicans [14]) was 0.03 µg/mL (≈ 0.077 µM) and the MIC (Cryptococcus neoformans) was 0.13 µg/mL (≈ 0.334 µM). The MIC (Pichia kudriavzevii) was 0.03 µg/mL (≈ 0.077 µM), the MIC (Candida tropicalis) was 0.06 µg/mL (≈ 0.154 µM) and the MIC (Nakaseomyces glabratus) was 0.13 µg/mL (≈ 0.334 µM). For the same compound, the MIC (Candida parapsilosis) was 0.03 µg/mL (≈ 0.077 µM) and the MIC (Aspergillus fumigatus) was 1 µg/mL (≈ 2.57 µM).

With N#C[Se]CCOC(=O)CCCC[C@@H]1SC[C@@H]2NC(=O)N[C@@H]21 the IC50 (OVCAR-3) was 11.8 µM, the IC50 [2] was 18.6 µM and the IC50 (ES-2) was 9.85 µM. For the same compound, the IC50 [3] was 14.1 µM and the IC50 (HEK-293T) was 77.2 µM.

In the case of CCC(C)n1ncn(-c2ccc(N3CCN(c4ccc(OCC5COC(Cn6cncn6)(c6ccc(Cl)cc6Cl)O5)cc4)CC3)cc2)c1=O (stereo unspecified) [ITRACONAZOLE], the MIC (Candida albicans [4]) is reported as 8 µg/mL (≈ 11.3 µM), the MIC (Candida albicans [5]) is reported as greater than 128 µg/mL and the MIC (Candida albicans [6]) is reported as greater than 128 µg/mL. For the same compound, the MIC (Candida albicans [7]) was greater than 128 µg/mL, the MIC (Candida albicans [8]) was greater than 128 µg/mL and the MIC (Candida albicans [13]) was 0.25 µg/mL (≈ 0.354 µM). It also gave an MIC (Candida albicans [14]) of 0.03 µg/mL (≈ 0.0425 µM), an MIC (Cryptococcus neoformans) of 0.5 µg/mL (≈ 0.709 µM) and an MIC (Pichia kudriavzevii) of 0.06 µg/mL (≈ 0.085 µM). The MIC (Candida tropicalis) was 0.5 µg/mL (≈ 0.709 µM), the MIC (Nakaseomyces glabratus) was 0.5 µg/mL (≈ 0.709 µM) and the MIC (Candida parapsilosis) was 0.25 µg/mL (≈ 0.354 µM). It also gave an MIC (Aspergillus fumigatus) of 2 µg/mL (≈ 2.83 µM).

Work on C=C1N(C)C=CN1CCCCCn1ccn(C)c1=[Se] yielded an Activity [9] of 45%.

For N#Cc1cccc(-c2ccc(=O)n(Cc3cccc(-c4ncc([Se]CCCN5CCCCC5)cn4)c3)n2)c1, the IC50 (MHCC97H) was 38 nM and the IC50 [1] was 654 nM.

Compound Cn1ccn(C)c1=[Se] has an IC50 [15] of 12.2 µM and an Activity [9] of 66.5%.

Cc1cccc(C)c1[Se]C(Cn1ccnc1)c1ccc(F)cc1 (stereo unspecified) showed an MIC (Candida albicans [13]) of 0.03 µg/mL (≈ 0.0804 µM), an MIC (Candida albicans [14]) of 0.03 µg/mL (≈ 0.0804 µM) and an MIC (Cryptococcus neoformans) of 0.13 µg/mL (≈ 0.348 µM). For the same compound, the MIC (Pichia kudriavzevii) was 0.06 µg/mL (≈ 0.161 µM), the MIC (Candida tropicalis) was 0.06 µg/mL (≈ 0.161 µM) and the MIC (Nakaseomyces glabratus) was 0.25 µg/mL (≈ 0.67 µM). The MIC (Candida parapsilosis) was 0.13 µg/mL (≈ 0.348 µM) and the MIC (Aspergillus fumigatus) was 2 µg/mL (≈ 5.36 µM).

Compound CC[C@@]1(OC(=O)OCc2ccc(O/C=C/[Se]c3ccccc3)cc2)C(=O)OCc2c1cc1n(c2=O)Cc2cc3ccccc3nc2-1 has an IC50 (HeLa [16]) of 308 nM, an IC50 (A549 [17]) of 102 nM and an IC50 (HCT-116) of 43 nM. The IC50 at 72 h [18] was 1180 nM and the IC50 at 72 h [19] was 10.2 µM.

COc1cc2c(c(OC)c1OC)-c1ccc(OC)c(=O)cc1[C@@H](NC(C)=O)CC2 [COLCHICINE] showed an IC50 at 96 h [12] of 0.045 µg/mL (≈ 0.113 µM).

Work on CC[C@@]1(O)C(=O)OCc2c1cc1n(c2=O)Cc2cc3ccccc3nc2-1 [CAMPTOTHECIN] yielded an IC50 (HeLa [16]) of 108 nM, an IC50 (A549 [17]) of 21 nM and an IC50 (HCT-116) of 11 nM. The IC50 at 72 h [18] was 86 nM and the IC50 at 72 h [19] was 1.13 µM.

For COc1cccc(Cn2ccn(Cc3cccc(OC)c3)c2=[Se])c1, the IC50 [15] was 42.2 µM and the Activity [9] was 82%.

O=C(Nc1ccn([C@@H]2O[C@H](CO)[C@@H](O)C2(F)F)c(=O)n1)OC1C[Se][Se]C1 showed an IC50 (HeLa [20]) of 880 nM, an IC50 (HepG2) of 470 nM and an IC50 (A549 [21]) of 110 nM. It also gave an IC50 (SMMC-7721) of 330 nM.

Compound N#C[Se]CCCOC(=O)CCCC[C@@H]1SC[C@@H]2NC(=O)N[C@@H]21 has an IC50 (OVCAR-3) greater than 100 µM, an IC50 [2] greater than 100 µM and an IC50 (ES-2) of 91.6 µM. It also gave an IC50 [3] of 22.3 µM and an IC50 (HEK-293T) greater than 100 µM.

With CN1C=CN(CCn2ccn(C)c2=[Se])C1 the Activity [9] was 68.4%.

Work on COc1cccc(Cn2ccn(Cc3cccc(OC)c3)c2=S)c1 yielded an IC50 (Lactoperoxidase) of 137 µM.

Compound O=C(O)CCCC[C@@H]1SC[C@@H]2NC(=O)N[C@@H]21 [BIOTIN] has an IC50 (OVCAR-3) greater than 100 µM, an IC50 [2] greater than 100 µM and an IC50 (ES-2) greater than 100 µM. It also gave an IC50 [3] greater than 100 µM and an IC50 (HEK-293T) greater than 100 µM.
